Measurements from ChEMBL document CHEMBL4033712, “Synthesis and biological evaluation of new C-12(α/β)-(N-) sulfamoyl-phenylamino-14-deoxy-andrographolide derivatives as potent anti-cancer agents” (Bioorg Med Chem Lett, 2017).

Key:
NHDF = test: (§1) Growth inhibition of human NHDF after 72 hrs by CellTiter-Glo luminescent cell viability assay; type: cell-based; settings: nhdf, 72 h
[1] = as §1; type: cell-based; settings: NHDF cells
[2] = Growth inhibition of human NCI60 cells after 48 hrs by sulforhodamine B assay; type: functional; settings: NCI60, 48 h

Question: Which LC50 (NHDF) does the source give for CN(C)C/C=C/C(=O)Nc1ccc(C(=O)Nc2ccc(Nc3ncc(Cl)c(-c4c[nH]c5ccccc45)n3)cc2)cc1 here?
Answer: 0.250743 µM

Question: And the GI50 at 72 h [1]?
Answer: 0.0466 µM

Question: Which GI50 [2] does the source give for C=C1CC[C@@H]2[C@](C)(CO)[C@H](O)CC[C@@]2(C)[C@@H]1C/C=C1/C(=O)OC[C@H]1O [ANDROGRAPHOLIDE] here?
Answer: 16.2 µM

Question: What about the TGI [2] of the same compound?
Answer: 49.7 µM

Question: And the CC50 ([2]; read-out: LC50 (the source's name))?
Answer: 80.9 µM
